Assay results taken from paper PMC10146491, “Meroterpenoids from Gongolaria abies-marina against Kinetoplastids: In Vitro Activity and Programmed Cell Death Study” (Pharmaceuticals, 2023).

Experiments:
[1] = tested on: promastigotes of L. amazonensis; experiment: Leishmanicidal activity assay (Alamar Blue), promastigotes; type: cell-based, Leishmania amazonensis; conditions: for Selectivity index (CC50/IC50), L. amazonensis: CC50 in murine macrophages; for IC50: Leishmania amazonensis, 72 h, Alamar Blue, read-out: Antikinetoplastid activity IC50, L. amazonensis
Experimental: (§1) To carry out the experiments, promastigotes of Leishmania amazonensis (MHOM/BR/77/LTB0016) and L. donovani (MHOM/IN/90/GE1F8R) and epimastigotes of Trypanosoma cruzi (Y strain) were employed. Leishmania species were cultured in Schneider’s medium (Sigma-Aldrich, Madrid, Spain), supplemented with 10% fetal bovine serum (VWR, Biowest, Nuaillé, France) and incubated at 26 °C. RPMI 1640 medium (Gibco, Thermo Fisher, Madrid, Spain) with or without phenol red was also used to culture the parasites at the same temperature. Epimastigotes of T. cruzi were cultured in liver infusion tryptose (LIT) medium supplemented with 10% fetal bovine serum at 26 °C. A cytotoxicity assay was performed using a murine macrophage cell line J774A.1 (ATCC TIB-67), which was maintained in Dulbecco’s modified Eagle’s medium (Gibco, Thermo Fisher, Madrid, Spain) supplemented with 10% of fetal bovine serum at 37 °C in a 5% CO2 atmosphere.
(§2) With the objective of determining the antiparasitic activity of the compounds isolated from G. abies-marina, leishmanicidal activity assays were performed against promastigote stages of L. amazonensis and L. donovani, as well as a trypanocidal activity assay performed against epimastigote stages of T. cruzi. In both parasites, a colorimetric assay was used based on the Alamar Blue reagent (Life Technologies, Madrid, Spain) as previously described by Bethencourt-Estrella et al. (2021).
(§3) In a sterile 96 well-plate, serial dilutions of the extracts, fractions or compounds isolated from G. abies-marina were performed in RPMI 1640 medium without phenol red (in the case of Leishmania spp.) or in LIT (in the case of T. cruzi) with a final volume of 100 µL. Parasites were added to wells to reach a concentration of 5 × 10^5 (Leishmania spp.) or 2.5 × 10^5 (T. cruzi) until a final volume of 200 µL/well. Next, 10% of Alamar Blue® was placed into each well and the plate was incubated for 72 h at 26 °C. Finally, the fluorescence of each well was measured using an EnSpire® Multimode Plate Reader (Perkin Elmer, Madrid, Spain) (544 nm excitation, 590 nm emission) and the concentration that inhibits 50% of the parasite population (IC50) was calculated using a non-linear regression analysis with 95% confidence limits. Miltefosine and benznidazol were used as reference drugs. To analyze the data and calculate the IC50, SigmaPlot 12.0 statistical analysis software (Systat Software Inc, Palo Alto, CA, USA) was used.
(§4) The 50% inhibitory concentration (IC50) and 50% cytotoxic concentration (CC50) values were obtained using Sigma Plot 12.0 statistical analysis software (Systat Software) and calculated using a non-linear regression analysis with 95% confidence limits. Leishmanicidal and trypanocidal activity assays, as well as cytotoxicity assays, were performed three times on different days, and the results were expressed as means ± standard deviations. The analysis of variance was determined using a one-way ANOVA using the GraphPad.PRISM® 9.0 software program (GraphPad Software, San Diego, CA, USA). Differences at p < 0.05 were considered statistically significant.

[2] = tested on: promastigotes of L. donovani; experiment: as above; type: cell-based, Leishmania donovani; conditions: for Selectivity index (CC50/IC50), L. donovani: CC50 in murine macrophages; for IC50: Leishmania donovani, 72 h, Alamar Blue, read-out: Antikinetoplastid activity IC50, L. donovani
Experimental: as §1, §2, §3, §4

[3] = tested on: epimastigotes of Trypanosoma cruzi; experiment: Trypanocidal activity assay (Alamar Blue), epimastigotes; type: cell-based; conditions: for Selectivity index (CC50/IC50), T. cruzi: CC50 in murine macrophages; for IC50: Trypanosoma cruzi, 72 h, Alamar Blue, read-out: Antikinetoplastid activity IC50, T. cruzi
Experimental: as §1, §2, §3, §4

[4] = Cytotoxicity assay (Alamar Blue); type: cell-based; conditions: mouse, J774A.1 murine macrophage cell line, J774A.1, 24 h, read-out: Cytotoxicity CC50, murine macrophages
Experimental: as §1
In a sterile 96-well plate, murine macrophages of the cell line J774A.1 were placed to reach an amount of 10^5 cells per well using RPMI 1640 medium without phenol red. After murine macrophage attachment, 50 µL serial dilutions of the isolated compounds were added in each well until reaching a final volume of 100 µL. Next, 10% of Alamar Blue® was placed into each well and the plate was incubated for 24 h at 37 °C with a 5% CO2 atmosphere. Finally, the plates were analyzed using an EnSpire® Multimode Plate Reader (PerkinElmer, Madrid, Spain), as described in the previous section, and the 50% cytotoxic concentration (CC50) values were calculated.
as §4

[5] = tested on: intracellular amastigotes of L. amazonensis; experiment: In vitro effect against amastigote stage in infected macrophages; type: cell-based, Leishmania amazonensis; conditions: for Selectivity index (CC50/IC50), amastigotes of L. amazonensis: CC50 in murine macrophages; for IC50: Leishmania amazonensis, J774.A1, intracellular amastigotes in J774A.1 macrophages, 24 h treatment
Experimental: To determine the in vitro effect against the amastigote stage of L. amazonensis, murine macrophages were infected. In a sterile 96 well-plate, macrophages of the J774A.1 cell line were placed in RPMI 1640 to reach 10^5 macrophages per well. This plate was incubated at 37 °C in a 5% CO2 atmosphere. After one hour of incubation, 100 µL of stationary-phase promastigotes of 7-day-old culture was added in a 10:1 ratio (10^6 parasites per well) and the plates were re-incubated at 37 °C for 24 h to achieve maximum infection. Then, the wells were washed with fresh medium to remove non-phagocytosed promastigotes. The infected macrophages were treated with the compounds isolated for 24 h. Then, the medium was removed carefully to be replaced by 30 μL of 0.05% SDS and the plate was shaken for 30 s. After broke macrophages, 170 μL of Schneider’s medium was added to each well to give a final volume of 200 μL and 20 μL of Alamar Blue® was added to the plate being incubated at 26 °C for 72 h, as described by López-Arencibia et al. (2017). After 72 h of incubation, the plates were analyzed using the same protocol for the promastigote test.

[6] = tested on: L. amazonensis promastigotes; experiment: Transmission electron microscopy, ultrastructural effects; type: cell-based, Leishmania amazonensis; conditions: IC90, 24 h
Experimental: (§5) The analysis of the ultrastructural and morphological damage caused by the compounds in the parasites was performed in collaboration with the Facultad de Estudios Superiores Iztacala (FESI), Medicina, UNAM (Mexico). These assays were performed after incubation of the promastigotes of L. amazonensis and epimastigotes of T. cruzi at the IC90 levels of the pure compounds over 24 h. TEM images were obtained using the conventional microscopy technique as previously described by Castelan-Ramirez et al. in a JEOL JEM-1011 transmission electron microscope (JEOL Ltd., Tokyo, Japan).

T. cruzi epimastigotes = experiment: as above; type: cell-based, Trypanosoma cruzi; conditions: IC90, 24 h
Experimental: as §5

[7] = tested on: L. amazonensis promastigotes; experiment: ATP level analysis (Cell Titer-Glo); type: cell-based, Leishmania amazonensis; conditions: IC90 of compound, 24 h
Experimental: To study the mechanism of cell death induced in parasites by compounds isolated from Gongolaria abies-marina, a common step was carried out to perform the following five experiments. The promastigotes of Leishmania spp. and epimastigotes of T. cruzi were incubated at the IC90 levels of the compounds (previously calculated) for 24 h at 26 °C. After incubation, the parasites were centrifuged at 3000 rpm for 10 min at 4 °C. The pellets were resuspended following the manufacturer’s instructions for each kit. After the incubation of promastigotes and epimastigotes of the parasites with the IC90 of the compounds, the changes in ATP levels were measured using a Cell Titer-Glo® Luminescent Cell Viability Assay (Promega, WI, USA). The assay was carried out in a white 96-well plate following the manufacturer’s instructions, as previously described by Cartuche et al. (2020). The luminescence was measured using an EnSpire® Multimode Plate Reader (PerkinElmer, Madrid, Spain).

[8] = listed as 6Z-1′-methoxyamentadione
[9] = listed as 6Z-1′-methoxyamentadione (3)

COc1c(C)cc(O)cc1C/C=C(\C)CC(=O)/C=C(\C)CCC[C@@H](C)C(=O)/C=C/C(C)(C)O [1′-Methoxyamentadione (4), 1′-methoxyamentadione]
Selectivity index (CC50/IC50), L. amazonensis [1]: 5.41 | IC50 [1]: ~4.88 µM | Selectivity index (CC50/IC50), L. donovani [2]: 0.21 | IC50 [2]: 126.5 ± 1.15 µM | Selectivity index (CC50/IC50), T. cruzi [3]: 5.36 | IC50 [3]: 4.93 ± 0.55 µM | CC50 at 24 h [4]: 26.4 ± 2.27 µM | Selectivity index (CC50/IC50), amastigotes of L. amazonensis [5]: 0.96 | IC50 [5]: 27.6 ± 1.68 µM | Ultrastructural and morphological alterations (TEM) ([6]; listed as 1′-methoxyamentadione): mitochondrial expansion (M), chromatin condensation in the nucleus (*), intense vacuolization (V), the formation of some autophagy vacuoles | Ultrastructural and morphological alterations (TEM) ([6]; listed as 1′-methoxyamentadione (4)): alteration of the flagellar pocket | Ultrastructural and morphological alterations (TEM) ([6]; listed as 4): showed two nuclei | Ultrastructural and morphological alterations (TEM) (T. cruzi epimastigotes): morphological mitochondrial (M) and kinetoplast (K) alterations, chromatin condensation in the nucleus (*), intense vacuolization (V) and the formation of some autophagy vacuoles

COc1c(C)cc(O)cc1C/C=C(\C)CC(=O)/C=C(/C)CCC[C@@H](C)C(=O)/C=C/C(C)(C)O [6Z-1′-Methoxyamentadione (3), 6Z-1′-methoxyamentadione]
Selectivity index (CC50/IC50), L. amazonensis [1]: 5.49 | IC50 [1]: ~4.88 µM | Selectivity index (CC50/IC50), L. donovani [2]: 0.27 | IC50 [2]: 97.9 ± 5.32 µM | Selectivity index (CC50/IC50), T. cruzi [3]: 8.19 | IC50 [3]: 3.26 ± 0.11 µM | CC50 at 24 h [4]: 26.8 ± 4.06 µM | Selectivity index (CC50/IC50), amastigotes of L. amazonensis [5]: 1.66 | IC50 [5]: 16.2 ± 2.61 µM | ATP levels relative to negative control [7]: greatest effect | Ultrastructural and morphological alterations (TEM) [6, 8]: mitochondrial expansion (M), chromatin condensation in the nucleus (*), intense vacuolization (V), the formation of some autophagy vacuoles | Ultrastructural and morphological alterations (TEM) [6, 9]: alteration of the flagellar pocket | Ultrastructural and morphological alterations (TEM) (T. cruzi epimastigotes; [8]): morphological mitochondrial (M) and kinetoplast (K) alterations, chromatin condensation in the nucleus (*), intense vacuolization (V) and the formation of some autophagy vacuoles | Ultrastructural and morphological alterations (TEM) (T. cruzi epimastigotes; [9]): Morphological alterations of the mitochondria and kinetoplast

O=C(Cn1ccnc1[N+](=O)[O-])NCc1ccccc1 [Benznidazole, benznidazole, reference compound]
Selectivity index (CC50/IC50), T. cruzi [3]: 57.51 | IC50 [3]: 6.95 ± 0.5 µM

CCCCCCCCCCCCCCCCOP(=O)([O-])OCC[N+](C)(C)C [Miltefosine, miltefosine, reference compound]
Selectivity index (CC50/IC50), L. amazonensis [1]: 11.10 | IC50 [1]: 6.48 ± 0.1 µM | Selectivity index (CC50/IC50), L. donovani [2]: 21.80 | IC50 [2]: 3.31 ± 0.11 µM | CC50 at 24 h [4]: 72.2 ± 1.25 µM | Selectivity index (CC50/IC50), amastigotes of L. amazonensis [5]: 23.16 | IC50 [5]: 3.12 ± 0.12 µM
